Two molecules from patent US6372737B1 (priority 1996, dated 2002) can be followed below.

Type in all cases: in vivo
Assay [1] concerns Phytophthora infestans. Put plainly: whole plant or invertebrate. The settings on record: Phytophthora infestans, in Solanum lycopersicum, 72 h, read-out: % efficacy.
For assay [2], the system named is Sphaerotheca fuliginea. Put plainly: Sphaerotheca test (cucumber)/protective. The settings on record: Podosphaera fuliginea, 240 h, application rate 2.5 g/ha, protective, 10 days after inoculation, read-out: % efficacy. As for the experimental part: To test for protective activity, young plants are sprayed with the commercial active compound preparation at the stated application rate. After the spray coating has dried on, the plants are inoculated with an aqueous spore suspension of Sphaerotheca fuliginea. The plants then remain in a greenhouse at about 23° C. and about 70% relative atmospheric humidity.
Evaluation is carried out 10 days after the inoculation. 0% means an efficacy corresponding to that of the control, and an efficacy of 100% means that no infection is observed.

The test system of assay [3] is Botrytis cinerea. Put plainly: Botrytis test (beans)/protective. The settings on record: 48 h, application rate 50 g/ha, protective, two days after inoculation, read-out: % efficacy. As for the experimental part: To test for protective activity, young plants are sprayed with the commercial active compound preparation at the stated application rate. After the spray coating has dried on, 2 small pieces of agar covered with Botrytis cinerea are placed on each leaf. The inoculated plants are placed in a darkened chamber at about 20° C. and 100% relative atmospheric humidity.
Two days after the inoculation, the size of the infected spots on the leaves is evaluated. 0% means an efficacy corresponding to that of the control, and an efficacy of 100% means that no infection is observed.

For assay [4], the system named is Fusarium nivale. Nature of the assay: Fusarium nivale test (triticale)/seed treatment. The settings on record: dry seed dressing, about 3 weeks after sowing.
Protocol: About 3 weeks after sowing, the plants are evaluated for symptoms of snow mould.
Assay [5] concerns Rhizoctonia solani. Nature of the assay: Rhizoctonia solani test (cotton)/seed treatment. The settings on record: application rate 75 mg/kg of seed, dry seed dressing, after 8 days. The procedure:
The active compounds are applied as dry seed dressing. This is prepared by extending the respective active compound with ground mineral to give a finely pulverulent mixture which ensures uniform distribution on the seed surface.
To dress the seed, the infected seed together with the seed dressing is shaken for 3 minutes in a sealed glass flask.
2×50 corns of seed are sown at a depth of 2 cm into standard soil which is infected with Rhizoctonia solani, and the seeds are cultivated in a greenhouse at a temperature of about 22° C. in seed trays which receive a light regimen of 15 hours per day.
Evaluation is carried out after 8 days. 0% means an efficacy which corresponds to that of the untreated control, while an efficacy of 100% means that no disease is observed.

The subject of assay [6] is Erysiphe graminis f.sp. hordei. Nature of the assay: Erysiphe test (barley)/curative. The settings on record: curative, 7 days after inoculation. The procedure:
(§1) Solvent: 25 parts by weight of N,N-dimethylacetamide
(§2) Emulsifier: 0.6 part by weight of alkylaryl polyglycol ether
(§3) To produce a suitable preparation of active compound, 1 part by weight of active compound or active compound combination is mixed with the stated amounts of solvent and emulsifier, and the concentrate is diluted with water to the desired concentration.
To test for curative activity, young plants are dusted with spores of Erysiphe graminis f.sp. hordei. 48 hours after the inoculation, the plants are sprayed with the preparation of active compound at the stated application rate.
(§4) The plants are placed in a greenhouse at a temperature of about 20° C. and a relative atmospheric humidity of about 80%, in order to promote the development of mildew pustules.
(§5) Evaluation is carried out 7 days after the inoculation. 0% means an efficacy which corresponds to that of the control, whereas an efficacy of 100% means that no infection is observed.

Assay [7] deals with Erysiphe graminis f.sp. tritici. Put plainly: Erysiphe test (wheat)/curative. Conditions: curative, 7 days after inoculation. As for the experimental part:
as §1, §2, §3
To test for curative activity, young plants are dusted with spores of Erysiphe graminis f.sp. tritici. 48 hours after the inoculation, the plants are sprayed with the preparation of active compound at the stated application rate.
as §4, §5

The subject of assay [8] is Leptosphaeria nodorum. Put plainly: Leptosphaeria nodorum test (wheat)/curative. The settings on record: curative, 10 days after inoculation. The procedure:
as §1, §2, §3
To test for curative activity, young plants are sprayed with a conidia suspension of Leptosphaeria nodorum. The plants remain in an incubation cabin at 20° C. and 100% relative atmospheric humidity for 48 hours and are then sprayed with the preparation of active compound at the stated application rate.
The plants are placed in a greenhouse at a temperature of about 15° C. and a relative atmospheric humidity of about 80%.
(§6) Evaluation is carried out 10 days after the inoculation. 0% means an efficacy which corresponds to that of the control, whereas an efficacy of 100% means that no infection is observed.

The test system of assay [9] is Pyrenophora teres. Nature of the assay: Pyrenophora teres test (barley)/curative. The settings on record: application rate 6.25 g/ha, curative, 7 days after inoculation. The procedure: as §1, §2, §3
To test for curative activity, young plants are sprayed with a conidia suspension of Pyrenophora teres. The plants remain in an incubation cabin at 20° C. and 100% relative atmospheric humidity for 48 hours. The plants are subsequently sprayed with the preparation of active compound at the stated application rate.
The plants are placed in a greenhouse at a temperature of about 20° C. and a relative atmospheric humidity of about 80%.
as §5

Assay [10] relates to Puccinia recondita. Put plainly: Puccinia test (wheat)/curative. The settings on record: application rate 6.25 g/ha, curative, 10 days after inoculation. The procedure:
as §1, §2, §3
To test for curative activity, young plants are sprayed with a conidia suspension of Puccinia recondita. The plants remain in an incubation cabin at 20° C. and 100% relative atmospheric humidity for 48 hours. The plants are subsequently sprayed with the preparation of active compound at the stated application rate.
The plants are placed in a greenhouse at a temperature of about 20° C. and a relative atmospheric humidity of about 80%, in order to promote the development of rust pustules.
as §6

In assay [11] the test system is Erysiphe graminis fsp. tritici. Put plainly: Erysiphe test (wheat)/protective. The settings on record: protective, 7 days after inoculation. The procedure: as §1, §2, §3
To test for protective activity, young plants are sprayed with the preparation of active compound at the stated application rate.
After the spray coating has dried on, the plants are dusted with spores of Erysiphe graminis fsp. tritici.
as §4, §5

The test system of assay [12] is Leptosphaeria nodorum. Nature of the assay: Leptosphaeria nodorum test (wheat)/protective. The settings on record: Parastagonospora nodorum, 240 h, application rate 6.25 g/ha, protective, 10 days after inoculation, read-out: Efficacy in %. The procedure:
as §1, §2, §3
To test for protective activity, young plants are sprayed with the preparation of active compound at the stated application rate. After the spray coating has dried on, the plants are sprayed with a spore suspension of Leptosphaeria nodorum. The plants remain in an incubation cabin at 20EC and 100% relative atmospheric humidity for 48 hours.
The plants are placed in a greenhouse at a temperature of about 15° C. and a relative atmospheric humidity of 80%.
as §6

The subject of assay [13] is Puccinia recondita. Put plainly: Puccinia test (wheat)/protective. Conditions: Puccinia recondita, 240 h, application rate 6.25 g/ha, protective, 10 days after inoculation, read-out: Efficacy in %. As for the experimental part: as §1, §2, §3
To test for protective activity, young plants are sprayed with the preparation of active compound at the stated application rate. After the spray coating has dried on, the plants are sprayed with a conidia suspension of Puccinia recondita. The plants remain in an incubation cabin at 20° C. and 100% relative atmospheric humidity for 48 hours.
The plants are then placed in a greenhouse at a temperature of about 20° C. and a relative atmospheric humidity of 80%, in order to promote the development of rust pustules.
as §6

The mark [14] stands for this setting: application rate 25 mg/kg of seed.

Structures are written as SMILES.

For `CON=C(C1=NOCCO1)c1ccccc1Oc1ncnc(Oc2ccccc2Cl)c1F` [(I)], in [1], the Emax at 0.5 g/ha is 9%. Further, the Emax at 1 g/ha in assay [1] came out at 20%. In assay [1], the Emax at 5 g/ha was 45%. In [2], the Emax at 2.5 g/ha amounted to 22%. Further, in assay [3], the Emax at 50 g/ha was determined as 15%. Further, the Efficacy in % was determined as 89% in assay [4] (setting [14]); 93% in assay [4] (application rate 75 mg/kg of seed); 16% in assay [5]; 0% in assay [6] (application rate 6.25 g/ha); 33% in [6] (application rate 12.5 g/ha); 75% in [6] (application rate 25 g/ha). The Efficacy in % in assay [7] (application rate 6.25 g/ha) worked out at 0%; in assay [7] (application rate 25 g/ha) it was 33%; in assay [8] (application rate 6.25 g/ha), 62%; in assay [8] (application rate 12.5 g/ha) it was 62%; in [9], 0%; in assay [10], 67%. The results for the Efficacy in % in [11] (application rate 6.25 g/ha), in [11] (application rate 12.5 g/ha) and in assay [11] (application rate 25 g/ha) were 0%, 29% and 79%, respectively. The values for the pest or weed control at 6.25 g/ha in assay [12] and in assay [13] were 25% and 81%, respectively.

As for `CC(C)(C)C(O)C(Oc1ccc(Cl)cc1)n1cncn1` (stereo not drawn) [(F), triadimenol], the Emax at 5 g/ha in assay [1] turned out to be 0%. The Efficacy in % is 52% in [4] (setting [14]); 48% in assay [5]; 67% in assay [6] (application rate 6.25 g/ha); 25% in assay [8] (application rate 6.25 g/ha); 0% in assay [9]. In addition, the pest or weed control at 6.25 g/ha in assay [12] was 0%; in assay [13], 13%.
